Measurements published in US12421210B2, “Fused bicyclic heterocycles as therapeutic agents” (NEW YORK UNIVERSITY, priority 2018, dated 2025).
Where two headings read alike, the source gives them in different places.

Target: human NAMPT enzyme (His-hNAMPT) (Homo sapiens (Human), UniProt P43490)
Test: NAMPT enzymatic inhibition assay (fluorescence, NADH product)
Assay type: biochemical
Method: The compounds were then diluted 20 fold in an intermediate dilution to 5% DMSO and water. Finally 10 μL of each compound was added to the assay plate, in duplicate, with highest concentration at 30 μM and the lowest at 0.001 μM in a final volume of 50 μL and 1% DMSO concentration. Each assay also tested, in parallel, two reference compounds, FK866 and GMX1778, with highest concentration at 10 μM and lowest at 0.0003 μM. 200 ng of human NAMPT enzyme (His-hNAMPT obtained from E. coli expression system) diluted in […] (tris-buffered saline-Polysorbate 20) 1× was added to each well in a volume of 10 μL and the compounds were incubated with the enzyme at room temperature for 20 minutes. After the incubation, 30 μL of master mixture were added to each well. The master mixture contained: 50 mM Tris-HCl, pH 8.0, 12.5 mM MgCl2, 20 μM nicotinamide, 40 μM phosphoribosyl pyrophosphate (PRPP), 20 μM adenosine triphosphate (ATP), 30 μg/mL of alcohol dehydrogenase, 10 μg/mL of NMNAT, 1.5% alcohol, 1 mM dithiothreitol (DTT), 0.02% bovine serum albumin (BSA), 0.01% Tween 20. The reaction was performed at 30° C. for 60 minutes. Fluorescence intensity was measured at an excitation of 340 nm and an emission of 460 nm using a Tecan Infinite M1000 microplate reader. The fluorescence values indicated increase of NADH product.
Enzyme activity assay was performed in duplicate at each concentration. The fluorescence data was analyzed and compared. In the absence of the compound, the intensity (Ce) in each data set was defined as 100% activity. In the absence of enzyme, the intensity (C0) in each data set was defined as 0% activity. The percent activity in the presence of each compound was calculated according to the following equation: % activity=(C−C0)/(Ce−C0), where C is the fluorescence in the presence of the compound.
The % activity vs. compound concentrations were then plotted using non-linear regression analysis of Sigmoidal dose-response curve generated with the equation Y=B+(T−B)/1+10^((Log EC50-X)×Hill Slope), where Y is percent activity, B is minimum percent activity, T is maximum percent activity, X is logarithm of compound and Hill Slope=slope factor or Hill coefficient.

[1] = [BPS], read-out: NAMPT IC50 (μM) [BPS]
[2] = [HDB], read-out: NAMPT IC50 (μM) [HDB]

Chain of human NAMPT enzyme (His-hNAMPT) (P43490 whole entry): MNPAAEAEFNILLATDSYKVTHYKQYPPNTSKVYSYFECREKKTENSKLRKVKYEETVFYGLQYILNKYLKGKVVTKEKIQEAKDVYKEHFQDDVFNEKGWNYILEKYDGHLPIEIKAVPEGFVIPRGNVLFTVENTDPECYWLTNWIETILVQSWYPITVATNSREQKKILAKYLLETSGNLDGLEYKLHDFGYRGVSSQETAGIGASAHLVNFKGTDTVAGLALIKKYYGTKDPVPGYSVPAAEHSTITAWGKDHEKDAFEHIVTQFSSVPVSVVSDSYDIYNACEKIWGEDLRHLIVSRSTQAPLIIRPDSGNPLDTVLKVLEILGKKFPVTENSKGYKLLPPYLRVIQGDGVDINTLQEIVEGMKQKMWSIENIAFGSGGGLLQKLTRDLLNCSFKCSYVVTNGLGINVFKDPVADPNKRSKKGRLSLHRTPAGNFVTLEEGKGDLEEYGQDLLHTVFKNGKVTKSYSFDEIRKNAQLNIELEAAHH

IC50 [1] [µM] | IC50 [2] [µM] | Compound
> 30 | – | CC(C)(C)OC(=O)N1C[C@@H]2[C@@H](CNC(=O)c3cc4ccncc4s3)[C@@H]2C1 [Example 236, (1R,5S,6s)-tert-butyl 6-((thieno[2,3-c]pyridine-2-carboxamido)methyl)-3-azabicyclo[3.1.0]hexane-3-carboxylate]
– | 0.01 to 0.49 | CC(c1ncccn1)N1C[C@@H]2[C@@H](CCNC(=O)/C=C/c3cccnc3)[C@@H]2C1 (stereo partly drawn) [Example 315, (E)-3-(pyridin-3-yl)-N-(2-((1R,5S,6s)-3-(1-(pyrimidin-2-yl)ethyl)-3-azabicyclo[3.1.0]hexan-6-yl)ethyl)acrylamide]
0.01 to 0.49 | – | Cc1nc(C)c(C(=O)N2C[C@@H]3[C@@H](CCNC(=O)/C=C/c4cccnc4)[C@@H]3C2)o1 [Example 105, (E)-N-(2-((1R,5S,6s)-3-(2,4-dimethyloxazole-5-carbonyl)-3-azabicyclo[3.1.0]hexan-6-yl)ethyl)-3-(pyridin-3-yl)acrylamide]
> 30 | – | CC(C)(C)OC(=O)N1C[C@@H]2[C@@H](CCNC(=O)C(C)(C)C)[C@@H]2C1 [Example 8, (1R,5S,6s)-tert-butyl 6-(2-pivalamidoethyl)-3-azabicyclo[3.1.0]hexane-3-carboxylate]
0.01 to 0.49 | – | Nc1ccc(/C=C/C(=O)NCC[C@@H]2[C@H]3CN(c4ncccn4)C[C@@H]23)cn1 [Example 189, (E)-3-(6-aminopyridin-3-yl)-N-(2-((1R,5S,6s)-3-(pyrimidin-2-yl)-3-azabicyclo[3.1.0]hexan-6-yl)ethyl)acrylamide]
– | 0.01 to 0.49 | O=C(/C=C/c1cccnc1)NCC[C@@H]1[C@H]2CN(Cc3ccc(Cl)cc3)C[C@@H]12 [Example 302, (E)-N-(2-((1R,5S,6s)-3-(4-chlorobenzyl)-3-azabicyclo[3.1.0]hexan-6-yl)ethyl)-3-(pyridin-3-yl)acrylamide]
0.01 to 0.49 | – | Nc1ccc(/C=C/C(=O)NCC[C@@H]2[C@H]3CN(C(=O)OC4CCOCC4)C[C@@H]23)cn1 [Example 41, (1R,5S,6s)-tetrahydro-2H-pyran-4-yl 6-(2-((E)-3-(6-aminopyridin-3-yl)acrylamido)ethyl)-3-azabicyclo[3.1.0]hexane-3-carboxylate]
– | < 0.01 | O=C(/C=C/c1cccnc1)NCC[C@@H]1[C@H]2CN(c3nccc(C(F)(F)F)n3)C[C@@H]12 [Example 169, (E)-3-(pyridin-3-yl)-N-(2-((1R,5S,6s)-3-(4-(trifluoromethyl)pyrimidin-2-yl)-3-azabicyclo[3.1.0]hexan-6-yl)ethyl)acrylamide]
– | 0.01 to 0.49 | O=C(/C=C/c1cccnc1)NCC[C@@H]1[C@H]2CN(c3ccc(F)c(Cl)c3)C[C@@H]12 [Example 153, (E)-N-(2-((1R,5S,6s)-3-(3-chloro-4-fluorophenyl)-3-azabicyclo[3.1.0]hexan-6-yl)ethyl)-3-(pyridin-3-yl)acrylamide]
0.5 to 0.99 | – | CC(C)(C)OC(=O)N1C[C@H]2CC(CNC(=O)NCc3cccnc3)C[C@H]2C1 (stereo partly shown) [Example 268, tert-butyl 5-((3-(pyridin-3-ylmethyl)ureido)methyl)hexahydrocyclopenta[c]pyrrole-2(1H)-carboxylate]
– | 0.01 to 0.49 | O=C(/C=C/c1cccnc1)NCC[C@@H]1[C@H]2CN(c3ccccc3C(F)(F)F)C[C@@H]12 [Example 140, (E)-3-(pyridin-3-yl)-N-(2-((1R,5S,6S)-3-(2-(trifluoromethyl)phenyl)-3-azabicyclo[3.1.0]hexan-6-yl)ethyl)acrylamide]
0.01 to 0.49 | – | CCN(CC)C(=O)N1C[C@@H]2[C@@H](CCNC(=O)/C=C/c3ccc(N)nc3)[C@@H]2C1 [Example 33, (1R,5S,6s)-6-(2-((E)-3-(6-aminopyridin-3-yl)acrylamido)ethyl)-N,N-diethyl-3-azabicyclo[3.1.0]hexane-3-carboxamide]
– | < 0.01 | O=C(/C=C/c1cccnc1)NCC[C@@H]1[C@H]2CN(c3nc(N4CCOCC4)ncc3F)C[C@@H]12 [Example 277, (E)-N-(2-((1R,5S,6s)-3-(5-fluoro-2-morpholinopyrimidin-4-yl)-3-azabicyclo[3.1.0]hexan-6-yl)ethyl)-3-(pyridin-3-yl)acrylamide]
> 30 | 1 to 29 | CC(C)(C)OC(=O)N1C[C@@H]2[C@@H](CNC(=O)COc3cccnc3)[C@@H]2C1 [Example 233, (1R,5S,6s)-tert-butyl 6-((2-(pyridin-3-yloxy)acetamido)methyl)-3-azabicyclo[3.1.0]hexane-3-carboxylate]
0.01 to 0.49 | – | CC1(OC(=O)N2C[C@@H]3[C@@H](CCNC(=O)c4cc5cc(N)ncc5s4)[C@@H]3C2)COC1 [Example 74, (1R,5S,6s)-3-methyloxetan-3-yl 6-(2-(5-aminothieno[2,3-c]pyridine-2-carboxamido)ethyl)-3-azabicyclo[3.1.0]hexane-3-carboxylate]
– | 0.01 to 0.49 | CC(C)(C)c1cccc(N2C[C@@H]3[C@@H](CCNC(=O)/C=C/c4cccnc4)[C@@H]3C2)c1 [Example 155, (E)-N-(2-((1R,5S,6s)-3-(3-(tert-butyl)phenyl)-3-azabicyclo[3.1.0]hexan-6-yl)ethyl)-3-(pyridin-3-yl)acrylamide]
– | < 0.01 | CN(C)c1ncc(F)c(N2C[C@@H]3[C@@H](CCNC(=O)/C=C/c4cccnc4)[C@@H]3C2)n1 [Example 304, (E)-N-(2-((1R,5S,6s)-3-(2-(dimethylamino)-5-fluoropyrimidin-4-yl)-3-azabicyclo[3.1.0]hexan-6-yl)ethyl)-3-(pyridin-3-yl)acrylamide]
0.01 to 0.49 | – | CC(C)(C)OC(=O)N1C[C@@H]2[C@@H](CCNC(=O)[C@H]3C[C@@H]3c3cccnc3)[C@@H]2C1 [Example 10, (1R,5S,6s)-tert-butyl 6-(2-((1R,2R)-2-(pyridin-3-yl)cyclopropanecarbox-amido)ethyl)-3-azabicyclo[3.1.0]hexane-3-carboxylate]
– | < 0.01 | O=C(/C=C/c1cccnc1)NCC[C@@H]1[C@H]2CN(Cc3cccc(Cl)c3)C[C@@H]12 [Example 301, (E)-N-(2-((1R,5S,6s)-3-(3-chlorobenzyl)-3-azabicyclo[3.1.0]hexan-6-yl)ethyl)-3-(pyridin-3-yl)acrylamide]
– | 0.01 to 0.49 | O=C(/C=C/c1cccnc1)NCC[C@@H]1[C@H]2CN(c3ccncn3)C[C@@H]12 [Example 168, (E)-3-(pyridin-3-yl)-N-(2-((1R,5S,6s)-3-(pyrimidin-4-yl)-3-azabicyclo[3.1.0]hexan-6-yl)ethyl)acrylamide]
– | 0.01 to 0.49 | O=C(/C=C/c1cccnc1)NCC[C@@H]1[C@H]2CN(c3ncc(F)c(O)n3)C[C@@H]12 [Example 187, (E)-N-(2-((1R,5S,6s)-3-(5-fluoro-4-hydroxypyrimidin-2-yl)-3-azabicyclo[3.1.0]hexan-6-yl)ethyl)-3-(pyridin-3-yl)acrylamide]
– | 0.01 to 0.49 | O=C(/C=C/c1cccnc1)NCC[C@H]1[C@H]2CN(c3ccccc3)C[C@@H]12 [Example 281, (E)-N-(2-((1R,5S,6r)-3-phenyl-3-azabicyclo[3.1.0]hexan-6-yl)ethyl)-3-(pyridin-3-yl)acrylamide]
– | < 0.01 | O=C(/C=C/c1cccnc1)NCC[C@@H]1[C@H]2CN(c3nc(Cl)ncc3F)C[C@@H]12 [Example 172, (E)-N-(2-((1R,5S,6s)-3-(2-chloro-5-fluoropyrimidin-4-yl)-3-azabicyclo[3.1.0]hexan-6-yl)ethyl)-3-(pyridin-3-yl)acrylamide]
– | 0.01 to 0.49 | O=C(NCC[C@@H]1[C@H]2CN(c3ncccn3)C[C@@H]12)c1cc2ccncc2s1 [Example 200, N-(2-((1R,5S,6s)-3-(pyrimidin-2-yl)-3-azabicyclo[3.1.0]hexan-6-yl)ethyl)thieno[2,3-c]pyridine-2-carboxamide]
– | 0.01 to 0.49 | O=C(/C=C/c1cccnc1)NCC[C@@H]1[C@H]2CN(c3nc(OCCO)ncc3F)C[C@@H]12 [Example 314, (E)-N-(2-((1R,5S,6s)-3-(5-fluoro-2-(2-hydroxyethoxy)pyrimidin-4-yl)-3-azabicyclo[3.1.0]hexan-6-yl)ethyl)-3-(pyridin-3-yl)acrylamide]
0.01 to 0.49 | – | O=C(NCC[C@@H]1[C@H]2CN(C(=O)c3ccccc3)C[C@@H]12)c1cnc2nccn2c1 [Example 76, N-(2-((1R,5S,6s)-3-benzoyl-3-azabicyclo[3.1.0]hexan-6-yl)ethyl)imidazo[1,2-a]pyrimidine-6-carboxamide]
– | 0.01 to 0.49 | O=C(/C=C/c1cccnc1)NCC[C@@H]1[C@H]2CN(c3ncc(C(F)(F)F)cn3)C[C@@H]12 [Example 162, (E)-3-(pyridin-3-yl)-N-(2-((1R,5S,6s)-3-(5-(trifluoromethyl)pyrimidin-2-yl)-3-azabicyclo[3.1.0]hexan-6-yl)ethyl)acrylamide]
